Experiments:
Type in all cases: in vivo
[1] = system: southern crabgrass (Digitaria ciliaris); test: Soil treatment test for upland field (Test Example 2): southern crabgrass; conditions: soil treatment before germination, examined after 3 weeks
Description: (§1) Evaluation of the herbicidal effect is shown in the following six grades, by comparing the condition of untreated control and growth inhibition (%): • 0: 0%-less than 20% • 1: 20%-less than 40% • 2: 40%-less than 60% • 3: 60%-less than 80% • 4: 80%-less than 100% • 5: 100%.
(§2) Upland field soil was filled in 1/3,000 are pots, seeded with southern crabgrass (Digitaria ciliaris), common lambsquaters (Chenopodium album), slender amaranth (Amaranthus viridis), common purslane (Portulaca oleracea), velvetleaf (Abutilon theophrasti), wheat, corn and soybean. The seeds were covered up with the soil.
(§3) Wettable powders containing the object compounds (1) as identified in Table 1, which were formulated following Preparation Example 2, were diluted with adequate amount of water to secure the prescribed dose of the active ingredient, and uniformly sprayed onto the surface soil layer after the seeding and before germination of the weeds, at an application water of 15 liters per are.
(§4) After placing the test pots in a glasshouse which was kept at an average temperature of 25° C. for 3 weeks, the herbicidal effect was examined.
(§5) Evaluations of the herbicidal effect and phytotoxicity were made in the manner similar to those in the above Test Example 1.

[2] = system: common lambsquaters (Chenopodium album); test: Soil treatment test for upland field (Test Example 2): common lambsquaters; conditions: soil treatment before germination, examined after 3 weeks
Description: as §1, §2, §3, §4, §5

[3] = system: slender amaranth (Amaranthus viridis); test: Soil treatment test for upland field (Test Example 2): slender amaranth; conditions: soil treatment before germination, examined after 3 weeks
Description: as §1, §2, §3, §4, §5

[4] = system: common purslane (Portulaca oleracea); test: Soil treatment test for upland field (Test Example 2): common purslane; conditions: soil treatment before germination, examined after 3 weeks
Description: as §1, §2, §3, §4, §5

[5] = system: velvetleaf (Abutilon theophrasti); test: Soil treatment test for upland field (Test Example 2): velvetleaf; conditions: soil treatment before germination, examined after 3 weeks
Description: as §1, §2, §3, §4, §5

wheat [6] = test: Soil treatment test for upland field (Test Example 2): phytotoxicity to wheat; conditions: soil treatment before germination, examined after 3 weeks
Description: (§6) Evaluation of phytotoxicity is shown in the following six grades, as compared with the condition of untreated control: • 0: normal growth • 1: little damaged • 2: low damaged • 3: medium damaged • 4: serious damaged • 5: complete killed.
as §2, §4

corn [7] = test: Soil treatment test for upland field (Test Example 2): phytotoxicity to corn; conditions: soil treatment before germination, examined after 3 weeks
Description: as §6, §2, §4

soybean [8] = test: Soil treatment test for upland field (Test Example 2): phytotoxicity to soybean; conditions: soil treatment before germination, examined after 3 weeks
Description: as §6, §2, §4

southern crabgrass = test: Foliage treatment test for upland field (Test Example 3): southern crabgrass; conditions: foliage treatment at 1.0-2.0 leaf stage of southern crabgrass, examined after 3 weeks
Description: as §1
(§7) Compost mixed soil was filled in 1/3,000 are pots, seeded with southern crabgrass, common lambsquaters, slender amaranth, common purslane, velvetleaf, wheat, corn and soybean. The seeds were covered up with the soil and cultured in a glasshouse kept at 25° C. on the average.
(§8) Wettable powders containing the object compounds (1) as identified in Table 1, which were formulated following Preparation Example 2, were diluted with water to the prescribed dose of the active ingredient, and uniformly sprayed onto the weeds at 1.0-2.0 leaf stage of the southern crabgrass at an application water of 15 liters per are.
(§9) After placing the test pots in a grasshouse kept at 25° C. on the average for 3 weeks, the herbicidal effect was examined.
(§10) Evaluation of the herbicidal effect was conducted in the similar manner to Test Example 1.

common lambsquaters = test: Foliage treatment test for upland field (Test Example 3): common lambsquaters; conditions: foliage treatment at 1.0-2.0 leaf stage of southern crabgrass, examined after 3 weeks
Description: as §1, §7, §8, §9, §10

slender amaranth = test: Foliage treatment test for upland field (Test Example 3): slender amaranth; conditions: foliage treatment at 1.0-2.0 leaf stage of southern crabgrass, examined after 3 weeks
Description: as §1, §7, §8, §9, §10

common purslane = test: Foliage treatment test for upland field (Test Example 3): common purslane; conditions: foliage treatment at 1.0-2.0 leaf stage of southern crabgrass, examined after 3 weeks
Description: as §1, §7, §8, §9, §10

velvetleaf = test: Foliage treatment test for upland field (Test Example 3): velvetleaf; conditions: foliage treatment at 1.0-2.0 leaf stage of southern crabgrass, examined after 3 weeks
Description: as §1, §7, §8, §9, §10

wheat [9] = test: Foliage treatment test for upland field (Test Example 3): phytotoxicity to wheat; conditions: foliage treatment at 1.0-2.0 leaf stage of southern crabgrass, examined after 3 weeks
Experimental: as §6, §7, §9

corn [10] = test: Foliage treatment test for upland field (Test Example 3): phytotoxicity to corn; conditions: foliage treatment at 1.0-2.0 leaf stage of southern crabgrass, examined after 3 weeks
Experimental: as §6, §7, §9

soybean [11] = test: Foliage treatment test for upland field (Test Example 3): phytotoxicity to soybean; conditions: foliage treatment at 1.0-2.0 leaf stage of southern crabgrass, examined after 3 weeks
Experimental: as §6, §7, §9

SMILES | Herbicidal Effect southern crabgrass ([1]; dose 2.5 g ai/a) | Herbicidal Effect southern crabgrass ([1]; dose 5 g ai/a) | Herbicidal Effect common lambsquaters ([2]; dose 2.5 g ai/a) | Herbicidal Effect common lambsquaters ([2]; dose 5 g ai/a) | Herbicidal Effect slender amaranth ([3]; dose 2.5 g ai/a) | Herbicidal Effect slender amaranth ([3]; dose 5 g ai/a) | Herbicidal Effect common purslane ([4]; dose 2.5 g ai/a) | Herbicidal Effect common purslane ([4]; dose 5 g ai/a) | Herbicidal Effect velvetleaf ([5]; dose 2.5 g ai/a) | Herbicidal Effect velvetleaf ([5]; dose 5 g ai/a) | Phytotoxicity wheat (wheat [6]; dose 2.5 g ai/a) | Phytotoxicity wheat (wheat [6]; dose 5 g ai/a) | Phytotoxicity corn (corn [7]; dose 2.5 g ai/a) | Phytotoxicity corn (corn [7]; dose 5 g ai/a) | Phytotoxicity soybean (soybean [8]; dose 2.5 g ai/a) | Phytotoxicity soybean (soybean [8]; dose 5 g ai/a) | Herbicidal Effect southern crabgrass (southern crabgrass; dose 2.5 g ai/a) | Herbicidal Effect southern crabgrass (southern crabgrass; dose 5 g ai/a) | Herbicidal Effect Common lambsquatters (common lambsquaters; dose 2.5 g ai/a) | Herbicidal Effect Common lambsquatters (common lambsquaters; dose 5 g ai/a) | also measured
COCC(=Cc1cccc(C(F)(F)F)c1)c1nc2cc(OC(F)(F)F)ccc2o1 [Compound 46] | 4 (80%-less than 100%) | 5 (100%) | 5 (100%) | 5 (100%) | 5 (100%) | 5 (100%) | 5 (100%) | 5 (100%) | 4 (80%-less than 100%) | 5 (100%) | 0 | 0 | 0 | 1 | 0 | 1 | 4 (80%-less than 100%) | 5 (100%) | 5 (100%) | 5 (100%) | Herbicidal Effect slender amaranth (slender amaranth; dose 2.5 g ai/a): 5 (100%); Herbicidal Effect slender amaranth (slender amaranth; dose 5 g ai/a): 5 (100%); Herbicidal Effect common purslane (common purslane; dose 2.5 g ai/a): 5 (100%); Herbicidal Effect common purslane (common purslane; dose 5 g ai/a): 5 (100%); Herbicidal Effect velvetleaf (velvetleaf; dose 2.5 g ai/a): 4 (80%-less than 100%); Herbicidal Effect velvetleaf (velvetleaf; dose 5 g ai/a): 5 (100%); Phytotoxicity wheat (wheat [9]; dose 2.5 g ai/a): 0; Phytotoxicity wheat (wheat [9]; dose 5 g ai/a): 1; Phytotoxicity corn (corn [10]; dose 2.5 g ai/a): 0; Phytotoxicity corn (corn [10]; dose 5 g ai/a): 1; Phytotoxicity soybean (soybean [11]; dose 2.5 g ai/a): 1; Phytotoxicity soybean (soybean [11]; dose 5 g ai/a): 1
CSCC(=Cc1cccc(C(F)(F)F)c1)c1nc2cc(C(F)(F)F)ccc2o1 [Compound 82] | 3 (60%-less than 80%) | 3 (60%-less than 80%) | 5 (100%) | 5 (100%) | 5 (100%) | 5 (100%) | 5 (100%) | 5 (100%) | 2 (40%-less than 60%) | 2 (40%-less than 60%) | 0 | 0 | 0 | 0 | 0 | 0 | 4 (80%-less than 100%) | 4 (80%-less than 100%) | 5 (100%) | 5 (100%) | Herbicidal Effect slender amaranth (slender amaranth; dose 2.5 g ai/a): 5 (100%); Herbicidal Effect slender amaranth (slender amaranth; dose 5 g ai/a): 5 (100%); Herbicidal Effect common purslane (common purslane; dose 2.5 g ai/a): 5 (100%); Herbicidal Effect common purslane (common purslane; dose 5 g ai/a): 5 (100%); Herbicidal Effect velvetleaf (velvetleaf; dose 2.5 g ai/a): 2 (40%-less than 60%); Herbicidal Effect velvetleaf (velvetleaf; dose 5 g ai/a): 3 (60%-less than 80%); Phytotoxicity wheat (wheat [9]; dose 2.5 g ai/a): 0; Phytotoxicity wheat (wheat [9]; dose 5 g ai/a): 0; Phytotoxicity corn (corn [10]; dose 2.5 g ai/a): 0; Phytotoxicity corn (corn [10]; dose 5 g ai/a): 1; Phytotoxicity soybean (soybean [11]; dose 2.5 g ai/a): 1; Phytotoxicity soybean (soybean [11]; dose 5 g ai/a): 1
COCC(=Cc1cccc(C(F)(F)F)c1)c1nc2cc(C#N)c(F)cc2o1 [Compound 117] |  |  |  |  |  |  |  |  |  |  |  |  |  |  |  |  | 4 (80%-less than 100%) | 5 (100%) | 5 (100%) | 5 (100%) | Herbicidal Effect slender amaranth (slender amaranth; dose 2.5 g ai/a): 5 (100%); Herbicidal Effect slender amaranth (slender amaranth; dose 5 g ai/a): 5 (100%); Herbicidal Effect common purslane (common purslane; dose 2.5 g ai/a): 5 (100%); Herbicidal Effect common purslane (common purslane; dose 5 g ai/a): 5 (100%); Herbicidal Effect velvetleaf (velvetleaf; dose 2.5 g ai/a): 4 (80%-less than 100%); Herbicidal Effect velvetleaf (velvetleaf; dose 5 g ai/a): 5 (100%); Phytotoxicity wheat (wheat [9]; dose 2.5 g ai/a): 0; Phytotoxicity wheat (wheat [9]; dose 5 g ai/a): 0; Phytotoxicity corn (corn [10]; dose 2.5 g ai/a): 0; Phytotoxicity corn (corn [10]; dose 5 g ai/a): 1; Phytotoxicity soybean (soybean [11]; dose 2.5 g ai/a): 0; Phytotoxicity soybean (soybean [11]; dose 5 g ai/a): 1
CCOCC(=Cc1cccc(C(F)(F)F)c1)c1nc2cc(F)c(F)cc2o1 [Compound 127] | 4 (80%-less than 100%) | 5 (100%) | 5 (100%) | 5 (100%) | 5 (100%) | 5 (100%) | 5 (100%) | 5 (100%) | 3 (60%-less than 80%) | 5 (100%) | 0 | 0 | 0 | 0 | 0 | 0 |  |  |  |  | 
CCOCC(=Cc1cccc(C(F)(F)F)c1)c1nc2cc(F)c(C(F)(F)F)cc2o1 [Compound 141] | 4 (80%-less than 100%) | 5 (100%) | 5 (100%) | 5 (100%) | 5 (100%) | 5 (100%) | 5 (100%) | 5 (100%) | 3 (60%-less than 80%) | 5 (100%) | 0 | 1 | 0 | 0 | 0 | 0 |  |  |  |  | 

— US20080058213A1, “Benzoxazole Compounds” (priority 2004, published 2008)
